# Measurements published in patent US6956035B2, “Isoquinoline derivatives and methods of use thereof” (Inotek Pharmaceuticals Corporation, priority 2001, dated 2005).
# Marks after values point to notes of the source that are not given here.
# Legend:
# PARS = molecular target: T1, PARS (Mus musculus, UniProt P11103); test: PARS activation in peroxynitrite-stimulated cultured RAW macrophages (whole-cell assay, 3H-NAD+ incorporation); format: cell-based; details: cultured murine macrophages; for % PARS inhibition at 100 nM / inhibition at 0.1 µM: 100 nM
# T1 construct: endogenous in cells; host or cells: RAW mouse macrophages
# T1 sequence (P11103 whole entry): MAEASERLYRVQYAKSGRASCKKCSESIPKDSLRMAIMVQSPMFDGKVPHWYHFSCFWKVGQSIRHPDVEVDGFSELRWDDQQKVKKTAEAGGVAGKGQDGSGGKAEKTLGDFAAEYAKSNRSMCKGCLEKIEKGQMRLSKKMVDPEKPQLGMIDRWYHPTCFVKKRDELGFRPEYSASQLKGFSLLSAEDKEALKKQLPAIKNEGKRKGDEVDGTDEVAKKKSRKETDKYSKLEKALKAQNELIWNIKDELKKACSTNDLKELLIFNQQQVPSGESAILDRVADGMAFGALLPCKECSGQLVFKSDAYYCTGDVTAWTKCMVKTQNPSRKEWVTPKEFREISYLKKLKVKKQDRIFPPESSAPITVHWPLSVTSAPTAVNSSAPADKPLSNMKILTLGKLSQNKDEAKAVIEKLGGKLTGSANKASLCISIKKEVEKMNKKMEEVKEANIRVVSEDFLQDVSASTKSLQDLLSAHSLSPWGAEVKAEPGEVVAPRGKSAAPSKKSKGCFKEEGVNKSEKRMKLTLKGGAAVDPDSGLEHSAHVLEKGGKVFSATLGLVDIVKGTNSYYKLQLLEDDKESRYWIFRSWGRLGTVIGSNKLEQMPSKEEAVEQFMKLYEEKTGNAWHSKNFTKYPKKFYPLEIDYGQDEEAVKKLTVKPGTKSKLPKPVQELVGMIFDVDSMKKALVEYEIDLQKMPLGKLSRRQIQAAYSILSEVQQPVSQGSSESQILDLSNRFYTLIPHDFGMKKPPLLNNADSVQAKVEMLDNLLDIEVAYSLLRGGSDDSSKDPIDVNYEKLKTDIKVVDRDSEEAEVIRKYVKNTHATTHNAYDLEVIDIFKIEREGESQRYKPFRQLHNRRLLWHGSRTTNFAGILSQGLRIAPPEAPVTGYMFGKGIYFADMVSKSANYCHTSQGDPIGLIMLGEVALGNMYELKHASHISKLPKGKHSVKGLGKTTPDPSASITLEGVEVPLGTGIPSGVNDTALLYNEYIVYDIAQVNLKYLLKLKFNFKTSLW
# Procedure: RAW mouse macrophages were cultured in DMEM medium with high glucose and supplemented with 10% fetal bovine serum. Cells were used at 80% confluence in 12-well plates. Cells were pretreated with various concentrations (100 nM-1 μM) of an Isoquinoline Derivative for 10 min. Peroxynitrite, a prototypical oxidant which induces DNA single strand breakage, was used to induce PARS activation. Peroxynitrite was diluted in phosphate buffered saline (PBS) (pH 11.0) and added to the cells in a bolus of 50 μl. Cells were then incubated for 20 min. […] Following an incubation in assay buffer, (10 min at 37° C.), PARS activity was measured as follows: 200 μl ice cold 50% w/v TCA was added and the samples were incubated for 4 hours at 4° C. Samples were then spun (10 min@10,000 g) and pellets washed twice with ice cold 5% w/v TCA and solubilized overnight in 250 μl 2% w/v SDS/0.1 N NaOH at 37° C. The contents of the tubes were added to 6.5 ml ScintiSafe Plus scintillation liquid (Fisher Scientific) and radioactivity was determined using a liquid scintillation counter (Wallac, Gaithersburg, Md.).
# mice = test: Single high-dose streptozotocin model of diabetes; format: in vivo; details: 3 mg/kg i.p.; STZ 160 mg/kg; blood sugar 3 days later; STZ + Vehicle 320 ± 13, basal 153 ± 21
# Procedure: PARS inhibitors and PARS deficiency are known to reduce the development of diabetes and the incidence of diabetic complications (Mabley et al., Br J Pharmacol. 2001, 133(6):909-9; and Soriano et al., Nat Med. 2001, 7(1):108-13). […] Briefly, 160 mg/kg streptozotocin was injected to mice treated with vehicle or with illustrative Isoquinoline Derivatives intraperitoneally (3 mg/kg) and 3 days later blood sugar levels were determined using a blood glucose meter.
# rat = test: Rat model of middle cerebral artery occlusion/reperfusion; format: in vivo; details: 3 mg/kg/day i.p.
# Procedure: Occlusion lasted for 2 hours, followed by reperfusion for 24 hours. Infarct size was quantified with tetrazolium staining. […] There was an approximately 80% reduction in the degree of cortical necrosis and neuronal death in the animals administered with 8l, when compared to vehicle-treated controls.
# TNF-alpha = test: LPS induced TNF production in mice in vivo; details: LPS 10 mg/kg i.p., plasma at 90 minutes, vehicle 6994.0
# purified PARS enzyme = molecular target: T2, purified PARS enzyme (Homo sapiens, UniProt P09874); test: Purified PARS enzyme inhibition assay (Trevigen kit, 96 well ELISA plates); format: biochemical; details: starred values: tested in purified enzyme assay
# T2 construct: purchased Trevigen, Gaithersburg, Md
# T2 sequence (P09874 whole entry): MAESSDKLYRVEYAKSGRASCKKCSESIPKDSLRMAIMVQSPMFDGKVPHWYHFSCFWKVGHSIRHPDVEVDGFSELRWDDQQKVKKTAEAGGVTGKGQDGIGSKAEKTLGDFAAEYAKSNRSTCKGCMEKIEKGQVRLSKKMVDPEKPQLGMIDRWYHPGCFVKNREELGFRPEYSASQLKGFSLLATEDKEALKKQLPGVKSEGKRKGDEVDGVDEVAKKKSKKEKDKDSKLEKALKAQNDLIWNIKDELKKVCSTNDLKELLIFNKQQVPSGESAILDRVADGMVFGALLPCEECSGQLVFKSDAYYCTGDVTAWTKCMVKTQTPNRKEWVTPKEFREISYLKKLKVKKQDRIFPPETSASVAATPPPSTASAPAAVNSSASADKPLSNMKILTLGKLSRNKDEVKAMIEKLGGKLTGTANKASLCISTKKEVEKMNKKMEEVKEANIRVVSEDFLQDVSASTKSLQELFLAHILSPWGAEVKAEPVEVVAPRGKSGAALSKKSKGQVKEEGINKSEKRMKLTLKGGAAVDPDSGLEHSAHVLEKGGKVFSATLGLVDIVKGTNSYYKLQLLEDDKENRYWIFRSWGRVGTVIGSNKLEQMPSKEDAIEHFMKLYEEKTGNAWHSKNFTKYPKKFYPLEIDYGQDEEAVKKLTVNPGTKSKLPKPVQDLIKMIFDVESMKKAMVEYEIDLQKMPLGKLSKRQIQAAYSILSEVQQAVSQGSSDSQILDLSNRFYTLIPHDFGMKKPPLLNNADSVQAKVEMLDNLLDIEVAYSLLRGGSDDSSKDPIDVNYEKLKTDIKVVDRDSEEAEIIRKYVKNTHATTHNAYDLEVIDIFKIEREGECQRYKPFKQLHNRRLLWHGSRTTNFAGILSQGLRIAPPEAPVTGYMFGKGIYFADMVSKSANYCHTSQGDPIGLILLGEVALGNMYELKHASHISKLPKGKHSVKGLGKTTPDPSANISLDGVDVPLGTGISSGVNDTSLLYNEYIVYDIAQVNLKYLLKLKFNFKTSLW
# Procedure: The assay was performed in 96 well ELISA plates according to instructions provided with a commercially available PARS inhibition assay kit (Trevigen, Gaithersburg, Md.). Briefly, wells were coated with 1 mg/mL histone (50 μl/well) at 4° C. overnight. Plates were then washed four times with PBS and then blocked by adding 50 μl Strep-Diluent (supplied with the kit). After incubation (1 h, room temperature), the plates were washed four times with PBS. Appropriate dilutions of PARS inhibitors were combined with 2×PARS cocktail (1.95 mM NAD^+, 50 μM biotinylated NAD^+ in 50 mM TRIS pH 8.0, 25 mM MgCl2) and high specific activity PARS enzyme (both were supplied with the kit) in a volume of 50 μl. The reaction was allowed to proceed for 30 min at room temperature. After 4 washes in PBS, incorporated biotin was detected by peroxidase-conjugated streptavidin (1:500 dilution) and TACS Sapphire substrate.
Compound,inhibition at 0.1 µM (PARS) [%],inhibition at 0.3 µM (PARS; 300 nM) [%],inhibition at 1 µM (PARS) [%],further results
"O=c1[nH]c2c(c3ccccc13)C(N1CCNCC1)c1ccccc1-2 (racemic) [Compound 5c, (±) 11-piperizin-5,6-dihydro-5-oxo-11H-indeno[1,2-c]isoquinoline]",–,–,–,% PARS inhibition at 100 nM (PARS): 0%; % PARS inhibition at 1 μM (PARS): 24%
"CN1CCN(C2c3ccccc3-c3[nH]c(=O)c4ccccc4c32)CC1 (racemic) [Compound 5d, (±) 11-(N-methylpiperazin)-5,6-dihydro-5-oxo-11H-indeno[1,2-c]isoquinoline]",–,–,–,% PARS inhibition at 1 μM (PARS): 48%
"O=c1[nH]c2c(c3ccccc13)Cc1cc(S(=O)(=O)N3CCC[C@H]3CO)ccc1-2 [Compound 8e, 9-[N-(2-hydroxyprolinyl)sulphonyl]-5,6-dihydro-5-oxo-11H-indeno[1,2-c]isoquinoline]",–,–,–,% PARS inhibition at 300 nM (PARS; 300 nM): 68%
"O=c1[nH]c2c(c3ccccc13)Cc1cc(S(=O)(=O)NCCN3CCOCC3)ccc1-2 [Compound 8j, 9-[N-(2-[morpholino-4-yl]ethyl)-aminosulphonyl]-5,6-dihydro-5-oxo-11H-indeno[1,2-c]isoquinoline]",–,–,–,Glucose (mice): 253 ± 24
"O=c1[nH]c2c(c3ccccc13)Cc1cc(S(=O)(=O)NCCCN3CCOCC3)ccc1-2 [Compound 8l, 9-[N-(3-[morpholino-4-yl]propyl)-aminosulphonyl]-5,6-dihydro-5-oxo-11H-indeno-[1,2-c]isoquinoline]",–,–,–,functional benefit (rat): neurological improvements
"CCN(CC)CCN(CCN(CC)CC)S(=O)(=O)c1ccc2c(c1)Cc1c-2[nH]c(=O)c2ccccc12 [Compound 8p, 9-[N,N-di-(2-[N,N-diethylamino]ethyl)-aminosulphonyl]-5,6-dihydro-5-oxo-11H-indeno-[1,2-c]isoquinoline]",27,45,–,TNF (TNF-alpha; 0.1 mg/kg i.p. pretreatment): 4470 pg/mL; TNF (TNF-alpha; 1.0 mg/kg i.p. pretreatment): 5090 pg/mL; Glucose (mice): 264 ± 24 mg/dL
"CN(C)CCN(CCN(C)C)S(=O)(=O)c1ccc2c(c1)Cc1c-2[nH]c(=O)c2ccccc12 [Compound 8q, 9-[N,N-di-(2-[N,N-dimethylamino]ethyl)-aminosulphonyl]-5,6-dihydro-5-oxo-11H-indeno-[1,2-c]isoquinoline]",20,28,–,–
O=c1[nH]c2c3ccccc3oc2c2ccccc12 [Compound 22a],51,–,81,–
COc1ccc2c(c1)oc1c3ccccc3c(=O)[nH]c21 [Compound 22c],62,66,83,–
COc1cccc2c1oc1c3ccccc3c(=O)[nH]c21 [Compound 22d],–,–,–,inhibition at 1 µM (purified PARS enzyme; 1 μM): 13%
Cc1ccc2oc3c4ccccc4c(=O)[nH]c3c2c1 [Compound 22e],38,56,53,–
O=C(O)c1ccc2oc3c4ccccc4c(=O)[nH]c3c2c1 [Compound 22f],–,23,27,–
O=C(O)c1ccc2c(c1)oc1c3ccccc3c(=O)[nH]c21 [Compound 22g],–,23,27,–
O=c1[nH]c2c3cccc(O)c3oc2c2ccccc12 [Compound 23c],63,66,63,–
O=C(O)CCNC(=O)c1ccc2oc3c4ccccc4c(=O)[nH]c3c2c1 [Compound 26b],–,–,–,% PARS inhibition at 100 nM (purified PARS enzyme): 21* %
"O=c1[nH]c2c3ccccc3[nH]c2c2ccccc12 [Compound 31, 6H,11H-Indole-[3,2-C]-Isoquinoline-5-one]",–,–,–,% PARS inhibition at 100 nM (PARS): 18%
O=c1[nH]c2c3ccc(S(=O)(=O)O)cc3n(S(=O)(=O)O)c2c2ccccc12 [Compound 34],–,–,–,% PARS inhibition at 100 nM (purified PARS enzyme): 14* %; % PARS inhibition at 300 nM (purified PARS enzyme; 300 nM): 33* %
"NS(=O)(=O)c1ccc2c3[nH]c(=O)c4ccccc4c3n(S(N)(=O)=O)c2c1 [Compound 35a, 6H,11H-Indole-[3,2-C]-Isoquinoline-5-one-9,11-disulfonamide]",–,–,–,% PARS inhibition at 100 nM (PARS): 14%; % PARS inhibition at 1 μM (PARS): 75%
